The numbers were not newly measured in patent publication US20100047273A1, “Coxsackie B virus and type 1 diabetes” (priority 2007, published 2010), which cites them from elsewhere.

For the series, the system named is coxsackie B4 virus. Conditions: reported in references 4 and 5.

As to `Cc1cc(CCCOc2c(C)cc(-c3noc(C(F)(F)F)n3)cc2C)on1` [pleconaril], the “activity against coxsackie B4 virus” value is reported as “active”.
